Like-named read-outs stand apart in the source and are kept apart here.
Molecular target: T1, human β3 adrenergic receptor (Homo sapiens, UniProt P13945)
T1 construct: expressed in transfected cells; host or cells: Chinese hamster ovary (CHO) cells, stably transfected
Assay: Beta-3 agonist in vitro functional assay: cAMP production (LANCE TR-FRET) in CHO cells stably transfected with the cloned β3 receptor
Type: cell-based
Procedure: Chinese hamster ovary (CHO) cells, stably transfected with the cloned β-adrenergic receptor (β1, β2 or β3) are harvested after 3 days of subculturing. Harvesting of cells is done with Enzyme-free Dissociation Media (Specialty Media). Cells are then counted and resuspended in assay buffer (Hank's Balanced salt solution supplemented with 5 mM HEPES, […]) containing a phosphodiesterase inhibitor (IBMX, 0.6 mM). The reaction is initiated by mixing 6,000 cells in 6 μL with 6 μL Alexa Fluor labeled cAMP antibody (LANCE™ kit) which is then added to an assay well containing 12 μL of compound (diluted in assay buffer to 2× final concentration). The reaction proceeds for 30 minutes at RT and is terminated by the addition of 24 ul detection buffer (LANCE™ kit). The assay plate is then incubated for 1 h at RT and time-resolved fluorescence measured on a Perkin Elmer Envision reader or equivalent. The unknown cAMP level is determined by comparing fluorescence levels to a cAMP standard curve.
The non-selective, full agonist β-adrenergic ligand isoproterenol is used at all three receptors to determine maximal stimulation. […] Data are analyzed using Microsoft Excel and Graphpad Prism or an internally developed data analysis software package.

[1] = Table 4, cAMP, CHO cells, read-out: Human β3 agonist functional activity
[2] = Table 8, Beta-3 agonist in vitro functional assay, read-out: Human β3 agonist functional activity
[3] = Table 11, cAMP, CHO cells, read-out: Human β3 agonist functional activity
[4] = Table 5, cAMP, CHO cells, read-out: Human β3 agonist functional activity
[5] = Table 10, Beta-3 agonist in vitro functional assay, read-out: Human β3 agonist functional activity
[6] = Table 9, Beta-3 agonist in vitro functional assay, read-out: Human β3 agonist functional activity
[7] = Table 12, human β3 functional activity given as ranges, read-out: Human β3 agonist functional activity
[8] = given as a range, cAMP, CHO cells, read-out: human β3 functional activity
[9] = Table 7, cAMP, CHO cells, ranges as given for Tables 6 and 7, read-out: Human β3 agonist functional activity

T1 sequence (P13945 whole entry): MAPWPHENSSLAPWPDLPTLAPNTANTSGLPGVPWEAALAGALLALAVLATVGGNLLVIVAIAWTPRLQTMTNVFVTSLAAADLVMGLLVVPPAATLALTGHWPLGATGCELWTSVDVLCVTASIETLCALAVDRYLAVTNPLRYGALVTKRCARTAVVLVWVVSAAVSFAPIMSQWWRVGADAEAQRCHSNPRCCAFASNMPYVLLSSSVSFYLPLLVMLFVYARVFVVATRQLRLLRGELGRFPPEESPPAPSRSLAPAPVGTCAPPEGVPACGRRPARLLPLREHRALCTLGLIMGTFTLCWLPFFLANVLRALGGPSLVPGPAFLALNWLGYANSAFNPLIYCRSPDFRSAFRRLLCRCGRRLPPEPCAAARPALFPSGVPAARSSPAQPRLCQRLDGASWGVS

For CCS(=O)(=O)n1cc2c(n1)CN(C(=O)c1ccc(C[C@@H]3CC[C@H]([C@H](O)c4ccccc4)N3)cc1)C2 [Example 29], the EC50 [1] was 100 to 999 nM.

O=C1CC2(CCN(C(=O)c3ccc(C[C@@H]4CC[C@H]([C@H](O)c5ccccc5)N4)cc3)CC2)S(=O)(=O)c2ccccc21 [Example 338] showed an EC50 [2] of 1 to 9.9 nM.

With O=C(c1ccc(C[C@@H]2CC[C@H]([C@H](O)c3ccccc3)N2)cc1)N1CCCN(c2nccn3ccnc23)CC1 [Example 552] the EC50 [3] was 1 to 9.9 nM.

Molecule O=C(O)C1CCN(C(=O)c2ccc(C[C@@H]3CC[C@H]([C@H](O)c4ccccc4)N3)cc2)CC1 [Example 117] has an EC50 [4] of 100 to 999 nM.

For CC(C)C1CC(CNC(=O)C(C)N2CCN(C(=O)c3ccc(C[C@@H]4CC[C@H]([C@H](O)c5ccccc5)N4)cc3)CC2)C1 (stereo partly drawn) [Example 454], the EC50 [5] was 10 to 99.9 nM.

C[C@H](c1ccccn1)N1CC2CC1CN2C(=O)c1ccc(C[C@@H]2CC[C@H]([C@H](O)c3ccccc3)N2)cc1 (stereo partly drawn) [Example 537] showed an EC50 [3] of 100 to 999 nM.

For O=C(c1ccc(C[C@@H]2CC[C@H]([C@H](O)c3cccnc3)N2)cc1)N1CCN(c2nccc(-c3ccccc3)n2)CC1 [Example 377], the EC50 [6] was 10 to 99.9 nM.

O=C(c1ccc(C[C@@H]2CC[C@H]([C@H](O)c3ccccc3)N2)cc1)N1CCC(Cn2ccncc2=O)CC1 [Example 151] was tested, and the EC50 [4] was 10 to 99.9 nM.

With CC(C)C(c1ccccn1)N1CCN(C(=O)c2ccc(C[C@@H]3CC[C@H]([C@H](O)c4ccccc4)N3)cc2)CC1 (stereo partly drawn) [Example 419] the EC50 [6] was 10 to 99.9 nM.

With CC(C)n1nnnc1C1CCN(C(=O)c2ccc(C[C@@H]3CC[C@H]([C@H](O)c4ccccc4)N3)cc2)CC1 [Example 109] the EC50 [4] was 1 to 9.9 nM.

Work on O=C(c1ccc(C[C@@H]2CC[C@H]([C@H](O)c3ccccc3)N2)cc1)N1CCC(Oc2cncc(Cl)n2)CC1 [Example 155] yielded an EC50 [4] of 100 to 999 nM.

In the case of Cc1cn(C2CCN(C(=O)c3ccc(C[C@@H]4CC[C@H]([C@H](O)c5ccccc5)N4)cc3)CC2)nn1 [Example 95], the EC50 [4] is reported as 10 to 99.9 nM.

Cn1cnnc1C1CCN(C(=O)c2ccc(C[C@@H]3CC[C@H]([C@H](O)c4ccccc4)N3)cc2)CC1 [Example 98] was tested, and the EC50 [4] was 100 to 999 nM.

With O=C(c1ccc(C[C@@H]2CC[C@H]([C@H](O)c3ccccc3)N2)cc1)N1CCC(n2c(=O)[nH]c3ccccc32)CC1 [Example 74] the EC50 [4] was 100 to 999 nM.

CC(C(=O)N1CCCCCC1)N1CCN(C(=O)c2ccc(C[C@@H]3CC[C@H]([C@H](O)c4ccccc4)N3)cc2)CC1 (stereo partly drawn) [Example 511] gave an EC50 [5] of 100 to 999 nM.

O=C(c1ccc(C[C@@H]2CC[C@H]([C@H](O)c3ccccc3)N2)cc1)N1Cc2cnn(C(F)(F)F)c2C1 [Example 30] gave an EC50 [1] of 100 to 999 nM.

O=C(c1ccc(CC2CCC(C(O)c3ccccc3)N2)cc1)N1CCC2(CC1)C(=O)NCC2c1ccc(F)cc1 (single isomer, unassigned) [Example 558] was tested, and the EC50 [7] was < 1 nM.

With O=C(c1ccc(C[C@@H]2CC[C@H]([C@H](O)c3ccccc3)N2)cc1)N1CCC2(CC1)C(=O)Oc1ccccc12 [Example 290] the EC50 [2] was 10 to 99.9 nM.

CC(C(=O)N(C)CCC#N)N1CCN(C(=O)c2ccc(C[C@@H]3CC[C@H]([C@H](O)c4ccccc4)N3)cc2)CC1 (stereo partly drawn) [Example 521] gave an EC50 [5] of 10 to 99.9 nM.

In the case of CC1CC2(CCN(C(=O)c3ccc(CC4CCC(C(O)c5ccccc5)N4)cc3)CC2)C(=O)O1 (single isomer, unassigned) [Example 562], the EC50 [7] is reported as 1 to 9.9 nM.

For O=C(c1ccc(C[C@@H]2CC[C@H]([C@H](O)c3ccccc3)N2)cc1)N1CCN(c2ccccn2)CC1 [Example 355], the EC50 [6] was 100 to 999 nM.

In the case of CC(C(=O)N1CCC[C@@H]1C)N1CCN(C(=O)c2ccc(C[C@@H]3CC[C@H]([C@H](O)c4ccccc4)N3)cc2)CC1 (stereo partly drawn) [Example 480], the EC50 [5] is reported as 10 to 99.9 nM.

For O=C(c1ccc(C[C@@H]2CC[C@H]([C@H](O)c3ccccc3)N2)cc1)N1CCN(Cc2nnn[nH]2)CC1 [Example 398], the EC50 [6] was 10 to 99.9 nM.

In the case of Cc1ccc(S(=O)(=O)C2CCN(C(=O)c3ccc(C[C@@H]4CC[C@H]([C@H](O)c5cccnc5)N4)cc3)CC2)cc1 [Example 135], the EC50 [4] is reported as 100 to 999 nM.

For O=C(c1ccc(C[C@@H]2CC[C@H]([C@H](O)c3ccccc3)N2)cc1)N1CCN(Cc2ncccc2O)CC1 [Example 413], the EC50 [6] was 10 to 99.9 nM.

O=C(O)c1cccnc1N1CCN(C(=O)c2ccc(C[C@@H]3CC[C@H]([C@H](O)c4ccccc4)N3)cc2)CC1 [Example 365] gave an EC50 [6] of 100 to 999 nM.

With CC(C(=O)NCC1CC1)N1CCN(C(=O)c2ccc(C[C@@H]3CC[C@H]([C@H](O)c4ccccc4)N3)cc2)CC1 (stereo partly drawn) [Example 447] the EC50 [5] was 10 to 99.9 nM.

In the case of O=C(c1ccc(C[C@@H]2CC[C@H]([C@H](O)c3ccccc3)N2)cc1)N1C[C@@H]2C(n3cnnn3)[C@@H]2C1 (stereo partly drawn) [Example 169, (R)-phenyl[(2R,5S)-5-(4-{[(1R,5S,6r)-6-(1H-tetraol-1-yl)-3-azabicyclo[3.1.0]hex-3yl]carbonyl}benzyl)pyrrolidine-2-yl]methanol], the EC50 [8] is reported as 1 to 9.9 nM.

O=C(c1ccc(C[C@@H]2CC[C@H]([C@H](O)c3ccccc3)N2)cc1)N1CC2CN(Cc3ccccn3)CC2C1 (stereo partly drawn) [Example 17] was tested, and the EC50 [1] was 100 to 999 nM.

Molecule CCOC(=O)C1CCN(C(=O)c2ccc(C[C@@H]3CC[C@H]([C@H](O)c4ccccc4)N3)cc2)C1 (stereo partly drawn) [Example 6] has an EC50 [1] of 100 to 999 nM.

O=C(c1ccc(C[C@@H]2CC[C@H]([C@H](O)c3ccccc3)N2)cc1)N1CCC2(CCCO2)CC1 [Example 307] gave an EC50 [2] of 10 to 99.9 nM.

O=C(c1ccc(C[C@@H]2CC[C@H]([C@H](O)c3ccccc3)N2)cc1)N1CCCCC1c1nccs1 (stereo partly drawn) [Example 50] showed an EC50 [1] of 100 to 999 nM.

With CC1COC(=O)C12CCN(C(=O)c1ccc(C[C@@H]3CC[C@H]([C@H](O)c4ccccc4)N3)cc1)CC2 (stereo partly drawn) [Example 296] the EC50 [2] was 1 to 9.9 nM.

C[C@H]1CN(C(=O)c2ccc(C[C@@H]3CC[C@H]([C@H](O)c4ccccc4)N3)cc2)CC[C@@H]1n1cccn1 [Example 62] was tested, and the EC50 [1] was 100 to 999 nM.

In the case of CC(c1ccn(C)n1)N1CCN(C(=O)c2ccc(CC3CCC(C(O)c4ccccc4)N3)cc2)CC1 (single isomer, unassigned) [Example 578], the EC50 [7] is reported as 100 to 999 nM.

Molecule O=C(c1ccc(C[C@@H]2CC[C@H]([C@H](O)c3ccccc3)N2)cc1)N1CCC2(CC1)CC(C1CC1)OC2=O (single isomer, unassigned) [Ex. 553] has an EC50 [8] of 1 to 9.9 nM.

In the case of COC(=O)c1csc(C2CCN(C(=O)c3ccc(C[C@@H]4CC[C@H]([C@H](O)c5ccccc5)N4)cc3)CC2)n1 [Example 88], the EC50 [4] is reported as 10 to 99.9 nM.

CC(C(=O)NC1CCCC1)N1CCN(C(=O)c2ccc(C[C@@H]3CC[C@H]([C@H](O)c4ccccc4)N3)cc2)CC1 (stereo partly drawn) [Example 456] was tested, and the EC50 [5] was 10 to 99.9 nM.

CC(C(=O)N1CCCC2(CCCO2)C1)N1CCN(C(=O)c2ccc(C[C@@H]3CC[C@H]([C@H](O)c4ccccc4)N3)cc2)CC1 (stereo partly drawn) [Example 497] showed an EC50 [5] of 10 to 99.9 nM.

O=C(c1ccc(CC2CCC(C(O)c3ccccc3)N2)cc1)N1CC2C(C1)C2Cn1nccn1 (stereo not drawn) [Example 232] gave an EC50 [9] of 100 to 999 nM.

Work on CC(C(=O)N1CCc2ncccc2C1)N1CCN(C(=O)c2ccc(C[C@@H]3CC[C@H]([C@H](O)c4ccccc4)N3)cc2)CC1 (stereo partly drawn) [Example 507] yielded an EC50 [5] of 10 to 99.9 nM.

For O=C(c1ccc(C[C@@H]2CC[C@H]([C@H](O)c3ccccc3)N2)c(Br)c1)N1CCC2(CCOC2=O)CC1 [Example 610], the EC50 (Table 13, human Beta-3 agonist functional activity given as range, read-out: Human β3 agonist functional activities) was 1 to 9.9 nM.

N#CC1(c2ncccn2)C2CN(C(=O)c3ccc(C[C@@H]4CC[C@H]([C@H](O)c5ccccc5)N4)cc3)CC21 (stereo partly drawn) [Example 237] showed an EC50 [9] of 10 to 99.9 nM.

Molecule O=C(c1ccc(C[C@@H]2CC[C@H]([C@H](O)c3ccccc3)N2)cc1)N1CCC2(CC1)Nc1ccccc1S(=O)(=O)N2 [Example 334] has an EC50 [2] of 1 to 9.9 nM.

CN1CCC2(CCN(C(=O)c3ccc(C[C@@H]4CC[C@H]([C@H](O)c5ccccc5)N4)cc3)CC2)C1=O [Example 251] showed an EC50 [2] of 100 to 999 nM.

Source: patent US8354403B2, “Pyrrolidine derived beta 3 adrenergic receptor agonists” (Merck Sharp & Dohme Corp., priority 2009, dated 2013)
